Test: Binding affinity against vitronectin receptor was determined

IC50 | SMILES
> 500 µM | CC(=O)N[C@H](CC(=O)O)C(=O)Nc1ccc(-c2ccccc2C(=O)O)cc1
96 µM | CC(=O)N[C@@H](CC(=O)O)C(=O)Nc1ccc(-c2ccccc2C(N)=O)cc1
52 µM | CC(=O)N[C@@H](CC(=O)O)C(=O)Nc1ccc(-c2ccccc2C(=O)O)cc1

The remaining lines, values behind:

SMILES | IC50
CC(=O)N[C@@H](CC(=O)O)C(=O)Nc1ccc(-c2cccc(C(=O)O)c2)cc1 | 31 µM
CC(=O)N[C@@H](CC(=O)O)C(=O)Nc1ccc(-c2ccc(C(=O)O)cc2)cc1 | 96 µM
CC(=O)N[C@@H](CC(=O)O)C(=O)Nc1cccc(-c2ccccc2C(=O)O)c1 | 46 µM
CC(=O)N[C@@H](CC(=O)O)C(=O)Nc1ccc(-c2ccccc2C(=O)N[C@@H](CCCN=C(N)N)C(=O)O)cc1 | 34 µM
CC(C)C(=O)N[C@@H](CC(=O)O)C(=O)Nc1ccc(-c2ccccc2C(=O)O)cc1 | > 500 µM
COCC(=O)N[C@@H](CC(=O)O)C(=O)Nc1ccc(-c2ccccc2C(=O)O)cc1 | > 500 µM
